Experimental data: US20230233696A1, “TRIANTENNARY N-ACETYLGALACTOSAMINE MODIFIED HYDROXYL POLYAMIDOAMINE DENDRIMERS AND METHODS OF USE THEREOF” (Ashvattha Therapeutics, Inc., priority 2019, published 2023)
One block for each molecule: values may come before it.

Legend:
[1] = in vitro drug release under plasma (pH7.4, PBS) and intracellular conditions (pH5.5, esterase); assay type: in vitro ADME; settings: intracellular conditions (pH5.5, esterase), 18 days
Procedure: The drug release profile of both the conjugates was evaluated under plasma (pH7.4, PBS) and intracellular conditions (pH5.5, esterase).

[2] = water solubility of dendrimer conjugates
[3] = target: T1, human angiotensin II AT1 receptor (Homo sapiens, UniProt P30556); assay: human angiotensin II AT1 receptor (antagonist radioligand) binding assay; settings: [125I][Sar1-Ile8] angiotensin-II radioligand, cell membrane homogenates
T1 sequence (P30556 1-359): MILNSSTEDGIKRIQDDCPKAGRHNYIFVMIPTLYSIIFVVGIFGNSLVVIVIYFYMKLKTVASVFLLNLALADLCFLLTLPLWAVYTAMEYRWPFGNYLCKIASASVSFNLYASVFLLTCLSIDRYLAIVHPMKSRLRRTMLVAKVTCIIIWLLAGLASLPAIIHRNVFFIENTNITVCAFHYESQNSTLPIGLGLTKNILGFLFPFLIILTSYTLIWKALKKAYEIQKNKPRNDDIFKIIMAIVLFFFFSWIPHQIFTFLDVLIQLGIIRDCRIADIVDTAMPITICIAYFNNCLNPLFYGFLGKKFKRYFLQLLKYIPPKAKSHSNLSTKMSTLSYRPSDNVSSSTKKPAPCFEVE
Procedure: Cell membrane homogenates (8 µg protein) are incubated for 120 min at 37° C. with 0.05 nM [125I][Sar1-Ile8] angiotensin-II in the absence or presence of the test compounds in a buffer containing 50 mM Tris-HCl (pH 7.4), 5 mM MgCl2, 1 mM EDTA and 0.1% BSA. Nonspecific binding is determined in the presence of 10 µM angiotensin II. Following incubation, the samples solution are filtered rapidly under vacuum through glass fiber filters (GF/B, Packard) presoaked with 0.3% PEI and rinsed several times with ice-cold 50 mM Tris-HCl using a 96-sample cell harvester (Unifilter, Packard). The filters are dried then counted for radioactivity in a scintillation counter (Topcount, Packard) using a scintillation cocktail (Microscint 0, Packard).
The results are expressed as a percent inhibition of the control radioligand specific binding. Saralasin is used as the standard reference compound, which is tested in each experiment at several concentrations to obtain a competition curve from which its IC50 is calculated.

NASH mice = assay: in vivo efficacy in STAM mouse model of non-alcoholic steatohepatitis; design: species or system C57BL/6 mice
Procedure: Pathogen-free 14 day-pregnant C57BL/6 mice were obtained from Japan SLC, Inc.(Japan); NASH was established in male mice by a single subcutaneous injection of 200 μg streptozotocin (STZ, Sigma, USA) 2 days after birth and feeding with a high fat diet (CLEA Japan Inc., Japan) ad libitum after 4 weeks of age (day 28 ± 2). NASH mice were randomized into 8 groups of 8 mice and 2 groups of 4 mice at 6 weeks of age (day 42 ± 2) the day before the start of treatment based on their body weight. Littermate control mice without STZ priming (n=8) were fed with normal diet ad libitum and set up for control purpose (see below for details on grouping). […] Samples would not be collected from euthanized animals. Individual body weight was measured daily during the treatment period. […] Four NASH mice were intraperitoneally administered vehicle supplemented with D-Cy5 at a dose of 50 mg/kg single shot at 6 weeks of age; • Group 11 (D-Cy5-9 wks): Four NASH mice were intraperitoneally administered vehicle supplemented with D-Cy5 at a dose of 50 mg/kg single shot at 9 weeks of age. Mice in group 10 and 11 were sacrificed at 6 and 9 weeks of age 48 hours after the administration. Mice in group 1 - 9 were sacrificed at 9 weeks of age for the following assay, group 10 and 11 were sacrificed at 6 and 9 weeks of age for the following assays. Individual liver weight were measured and liver-to-body weight ratio were calculated. Non-fasting serum ALT levels were quantified by FUJI DRI CHEM (Fujifilm, Japan). Liver triglyceride levels were quantified by Triglyceride E-test kit (FUJIFUILM Wako Pure Chemical Corporation, Japan). HE staining and estimation of NAFLD Activity score was carried out using routine methods. Sirius-red staining and estimation of the percentage of fibrosis area was also calculated. After completion of the in-life portion of the study, the following samples were collected for further analyses or shipping. […] Dissect the animal and collect the tissue samples (right and left kidneys, liver) in sequential order. Sample thickness was less than approximately 5 mm to ensure proper fixation, with a flat surface across the area of interest. Put the samples into 4% NBF for fixation immediately. Fix the samples in 4% NBF overnight at room temperature.

CSF1R = CSF1R (Homo sapiens, UniProt P07333); assay: binding affinity towards CSF1R
Chain of CSF1R (P07333 20-972, species assumed): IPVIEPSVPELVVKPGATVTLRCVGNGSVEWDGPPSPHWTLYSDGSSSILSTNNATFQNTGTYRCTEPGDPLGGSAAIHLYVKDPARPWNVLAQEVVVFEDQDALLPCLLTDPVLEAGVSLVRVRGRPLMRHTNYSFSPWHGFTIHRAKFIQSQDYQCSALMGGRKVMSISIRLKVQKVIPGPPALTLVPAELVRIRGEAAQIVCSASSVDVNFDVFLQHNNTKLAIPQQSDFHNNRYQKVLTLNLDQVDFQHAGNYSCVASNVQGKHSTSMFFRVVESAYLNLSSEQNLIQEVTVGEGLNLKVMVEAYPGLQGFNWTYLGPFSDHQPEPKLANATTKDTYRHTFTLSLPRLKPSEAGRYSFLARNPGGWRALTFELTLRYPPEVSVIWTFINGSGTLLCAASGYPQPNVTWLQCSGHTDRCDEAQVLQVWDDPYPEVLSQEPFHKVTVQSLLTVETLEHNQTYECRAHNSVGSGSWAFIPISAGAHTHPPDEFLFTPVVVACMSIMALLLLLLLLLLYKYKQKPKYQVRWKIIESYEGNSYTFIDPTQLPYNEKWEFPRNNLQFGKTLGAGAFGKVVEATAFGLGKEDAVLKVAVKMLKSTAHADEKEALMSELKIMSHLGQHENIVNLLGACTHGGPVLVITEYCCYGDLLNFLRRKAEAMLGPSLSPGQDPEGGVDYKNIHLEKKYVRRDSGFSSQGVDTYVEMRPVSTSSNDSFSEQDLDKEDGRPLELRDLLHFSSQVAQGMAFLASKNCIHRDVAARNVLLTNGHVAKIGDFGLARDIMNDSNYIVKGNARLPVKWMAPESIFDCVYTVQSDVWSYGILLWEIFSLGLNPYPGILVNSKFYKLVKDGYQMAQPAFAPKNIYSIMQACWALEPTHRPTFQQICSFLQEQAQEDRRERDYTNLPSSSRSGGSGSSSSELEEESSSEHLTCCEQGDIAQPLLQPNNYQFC

[4] = NASH mice, significantly compared to free OCA and vehicle control (p < 0.05, n=8)

Molecule: dendrimer-GalNAc (4-5)-telmisartan amide (6-7) [D-Tel]
drug release [1]: less than 10% | water solubility [2]: 60 to 70 mg/mL

Molecule: telmisartan-PEG3-amide azide [Telmisartan amide linker]
Kd [3]: 74.2 nM

Molecule: CCCc1nc2c(C)cc(-c3nc4ccccc4n3C)cc2n1Cc1ccc(-c2ccccc2C(=O)O)cc1 [Telmisartan, reference compound]
liver weight (NASH mice; NASH mice at nine weeks of age, compared to vehicle-treated NASH mice): reduce liver weight

Molecule: telmisartan-ester-PEG4 azide [Telmisartan ester linker]
Kd [3]: 28.5 nM

Molecule: dendrimer-triantennary GalNAc(4-5)-telmisartan (7-8) [D-TelB]
drug release [1]: 94%

Kd (CSF1R): ~13 nM
Molecule: Cc1ccc(NC(=O)c2ccc(CN3CCN(CCOCCOCCOCCN=[N+]=[N-])CC3)c(C(F)(F)F)c2)cc1NC(=O)c1cccc(-c2cnn(C)c2)c1 [CSF1R-E analogue 1]

Molecule: dendrimer-GalNAc(4-5)-Obeticholic acid conjugate (6-7) [D-OCA]
liver function (biochemical analysis) (NASH mice; NASH mice): improved liver function | NAFLD score (NASH mice; [4]): decreases | hepatocyte ballooning (NASH mice; [4]): decreases | liver fibrosis (NASH mice; [4]): decreases | fibrosis score (NASH mice; high dose D-OCA (315 mg/kg i.p. every other day), compared to free OCA group): improved reduction | stenosis score (NASH mice; low dose D-OCA (63 mg/kg i.p. every other day)): significant reduction
